Like-named read-outs stand apart in the source and are kept apart here.
Columns and labels:
[1] = Plasma protein binding, human plasma; type: in vitro ADME; settings: pH 7.4, read-out: human PPB fu
[2] = target: T1, mouse PAR4 (Mus musculus, UniProt O88634); assay: Mouse platelet activity assay, flow cytometry, γ-thrombin activation; type: cell-based
T1 construct: washed mouse platelets were prepared by collecting cardiac puncture blood; endogenous in cells; host or cells: washed mouse platelets (cardiac puncture blood)
T1 sequence (O88634 17-396): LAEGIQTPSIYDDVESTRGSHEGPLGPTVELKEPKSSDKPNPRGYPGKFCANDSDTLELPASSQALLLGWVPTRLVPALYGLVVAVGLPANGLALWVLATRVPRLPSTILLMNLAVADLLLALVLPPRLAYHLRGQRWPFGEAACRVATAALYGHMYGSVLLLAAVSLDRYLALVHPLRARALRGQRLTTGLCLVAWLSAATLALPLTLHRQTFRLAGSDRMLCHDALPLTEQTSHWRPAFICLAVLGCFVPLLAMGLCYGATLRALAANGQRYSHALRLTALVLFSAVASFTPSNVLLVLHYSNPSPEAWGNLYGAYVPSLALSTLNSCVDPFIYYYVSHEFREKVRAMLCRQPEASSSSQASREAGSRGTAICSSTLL
Experimental: For mouse PAR4 activity, washed mouse platelets were prepared by collecting cardiac puncture blood with 200 μL of 20 U/mL heparin. Following centrifugation at 1000 rpm for 15 min, plasma and buffy coat were collected into a separate tube and spiked with apyrase and PGE1. After centrifuging at 1000 rpm for 8 min, the platelet-rich plasma was transferred to another tube and centrifuged at 2200 rpm for 10 min to pellet the platelets. Platelets were resuspended in TBB + apyrase + PGE1. Platelets were counted and diluted in TBB to a final concentration of 2 × 10^7 platelets/mL. 50 μL of platelets were aliquoted to each tube preincubated with 50 μL of TBB with antibodies for mouse GPIIbIIIa and P-selectin (Emfret, Eibelstadt Germany) and either test compound antagonist or DMSO control. Platelets were activated with 316 nM γ-thrombin for 30 min. Samples were then fixed with 100 μL of 2% paraformaldehyde for 20 min and diluted with 300 μL of PBS. Flow cytometry counts are measured as for human platelets on a three-laser BD LSRFortessa (Becton Dickinson) and analyzed with FloJo software.

[3] = Modified microsomal clearance assay with or without NADPH, mouse liver microsomes; type: in vitro ADME; settings: for Estimated % Contribution to Metabolism Mouse CYPs/FMOs / Estimated % Contribution to Metabolism Mouse Esterases: MLM, from AUC with/without NADPH vs buffer only; for CLint scaled at 1 µM: mouse, liver microsomes, pH 7.4, MLM, reaction initiated by test compound
Experimental: It is of note that the experimental design for the initial round of microsomal clearance assays adds a test compound to microsomes before the reaction is started by the addition of nicotinamide adenine dinucleotide phosphate (NADPH). This design assumes that the major contributing drug-metabolizing enzymes are cytochrome P450s (CYPs). To investigate this further, the experimental design was modified where the reaction was initiated by the addition of a test compound and was carried out in the presence or absence of NADPH. […] By comparison of the measured intrinsic clearance in the presence and absence of NADPH, the contribution of non-CYP450 drug-metabolizing enzymes can be estimated.
Mammalian liver microsomes include CYPs, flavin monooxygenases (FMOs), glucuronosyltransferases ([…]), and esterases as part of their enzyme composition. In the presence of NADPH, which serves as a cofactor for CYP- and FMO-dependent reactions, the observed activity can be attributed to these enzymes. Similarly, UGTs require the cofactor uridine diphosphate glucuronic acid (UDPGA). Therefore, when NADPH and UDPGA are absent, any reduction in the compound can be ascribed only to esterase activity or chemical instability. […] This is based on two factors: (1) the stability of the compounds in HP buffer, which is used in the platelet assays, and (2) the low probability of drug metabolism occurring within the platelets themselves. Together, these minimize the chance that any metabolites with distinct PAR4 potencies could confound the results. By comparing the area under the curve of the compound metabolized from the microsomal incubations in the presence or absence of NADPH to the corresponding area under the curve of the buffer-only incubation, the percent contribution of CYPs and FMOs and esterases were estimated (Table S1). The major contributing enzyme toward the metabolism of 12 is esterases in both the human (96%) and mouse (98%). In contrast, the metabolism of 31 was primarily driven by CYPs and FMOs in both HLM (80%) and MLM (88%).
In separate 96-well plates for each time point, a mixture of 0.1 M potassium phosphate-buffered (pH 7.4), 3 mM MgCl2, and 2.5 mg/mL microsomes were prewarmed at 37 °C for 5 min. Following the preincubation, a 1 μM test compound and 1 mM NADPH (for 3, 7, 15, 25, or 45 min time points) or buffer (for 0 min time point) were added to initiate the reaction. Under standard conditions, reactions were initiated with the addition of NADPH. To delineate the contribution of esterases, some experiments were initiated by the addition of substrate in the presence or absence of NADPH. Plates were incubated at 37 °C under ambient oxygenation. At the respective times, each plate’s reaction was precipitated by the addition of 2 volumes of ice-cold acetonitrile containing an internal standard (carbamazepine, 50 nM). The plates were centrifuged at 4000 rcf (4 °C) for 5 min. The resulting supernatants were transferred and diluted 1:1 (supernatant:water) into new 96-well plates in preparation for LC/MS/MS analysis. Each compound was assayed in triplicate within the same 96-well plate. The in vitro half-life (t1/2, min, eq 1), intrinsic clearance (CLint, mL/min/kg, eq 2), and subsequent predicted hepatic clearance (CLhep, mL/min/kg, eq 3) were determined employing the following equations [drawing 1] 1 [drawing 2] 2 [drawing 3] 3 The estimated percent contribution to metabolism was calculated from the percent substrate lost plots generated from metabolic incubations initiated with the addition of a test compound. Calculations compared the area under the curve (AUC) from conditions in the presence and absence of NADPH and buffer-only (control) conditions (eqs 4 and 5). AUC was calculated by using the trapezoidal method [drawing 4] 4 [drawing 5] 5
Clint (mL/min/kg) Estimated % Contribution to Metabolism
Compound Human Mouse Human Mouse +NADPH -NADPH +NADPH -NADPH CYPs/FMOs Esterases CYPs/FMOs Esterases […]

[4] = Table 4 summary, read-out: mouse PAR4 IC50
[5] = mouse platelets, 316 nM γ-thrombin, GPIIbIIIa (JonA), read-out: Mouse Platelets JonA IC50
[6] = mouse platelets, 316 nM γ-thrombin, P-selectin, read-out: Mouse Platelets P-Sel IC50

| SMILES | fraction unbound at 4 h [1] | IC50 [2, 4] [nM] | IC50 [2, 5] [nM] | IC50 [2, 6] [nM] | Estimated % Contribution to Metabolism Mouse CYPs/FMOs [3] [%] | Estimated % Contribution to Metabolism Mouse Esterases [3] [%] | CLint scaled at 1 µM ([3]; +NADPH) [L/h/kg] | CLint scaled at 1 µM ([3]; -NADPH) [L/h/kg] |
| --- | --- | --- | --- | --- | --- | --- | --- | --- |
| Cc1cc(C(=O)Nc2n[nH]c(OC(F)F)n2)nn1-c1ccccc1 [Compound 9] | 0.036 | 1450 | 1450 | 1450 |  |  |  |  |
| Cn1nc(C(=O)Nc2n[nH]c(-c3c(F)cccc3F)n2)cc1C1CC1 [Compound 12] | 0.052 |  | 401 | 370 | 2 | 98 | 589 | 374 |
| O=C(Nc1nc[nH]n1)c1nn(-c2ccccc2)c2c1CCC2 [Compound 17] | 0.029 | 3330 | 3330 | 4020 |  | 0 | 47.3 | 1.67 |

Stronger by IC50 [2, 5], values ahead:

| fraction unbound at 4 h [1] | IC50 [2, 4] [nM] | IC50 [2, 5] [nM] | IC50 [2, 6] [nM] | Estimated % Contribution to Metabolism Mouse CYPs/FMOs [3] [%] | Estimated % Contribution to Metabolism Mouse Esterases [3] [%] | CLint scaled at 1 µM ([3]; +NADPH) [L/h/kg] | CLint scaled at 1 µM ([3]; -NADPH) [L/h/kg] | SMILES |
| --- | --- | --- | --- | --- | --- | --- | --- | --- |
| 0.015 | 367 | 367 | 330 | 88 | 12 | 626 | 1.94 | O=C(Nc1n[nH]c(-c2ccc(F)cc2F)n1)c1nn(-c2ccccc2)c2c1CCCC2 [Compound 31] |
| 0.007 | 269 | 269 | 298 |  |  |  |  | COc1cccc(-c2nc(NC(=O)c3nn(-c4ccccc4)c4c3CCCC4)n[nH]2)c1 [Compound 32] |
